Source: ChEMBL document CHEMBL1201862, “PubChem BioAssay data set” (2004)
Active and inactive are the calls of the source.

Experiments:
[1] = MIN6 cell viability loss – mouse insulinoma, cytotoxicity control, dose response (AID 2122); type: functional;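 note: confirmatory high-throughput counterscreen run to flag cytotoxic compounds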
[2] = biological target: Protein Wnt-3a (Mus musculus, UniProt P27467); experiment: antagonism of Wnt3a pathway luciferase reporter – Wnt-LIGHT cells, luminescence, selectivity assay for Gli-SUFU antagonist project, dose response (AID 651570); type: functional; settings: read-out: IC50_Mean;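 note: Wnt-LIGHT reporter cells stimulated with conditioned medium from Wnt3a-producing cells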
[3] = decrease of insulin promoter-GFP reporter – imaging, high-content screening, mouse beta cells (AID 1628); type: functional; settings: MIN6
[4] = Trypanosoma cruzi growth suppression in host cells – NIH3T3 host cells, beta-gal luminescence, confirmation (AID 2044); type: functional, cell-based;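 note: intracellular parasites grown in NIH/3T3 mouse fibroblasts as host cells; luminescent beta-galactosidase reporter signal from transgenic T. cruzi replicating inside host cells; inhibitors lower the luminescence signal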
[5] = cAMP pathway inhibition in counterscreen cell line – TR-FRET cAMP detection, counter-screen for MC4R biased antagonist project, dose response (AID 602305); type: functional, cell-based;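 note: U2OS cells stimulated with forskolin near its EC80 as the cAMP inducer; potency is for inhibition of forskolin-stimulated cAMP signaling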
[6] = biological target: T1, Protein RecA (Mycobacterium tuberculosis, UniProt P9WHJ3); experiment: Fluorescence Cell-Free Homogeneous Dose Retest to Identify Inhibitors of RecA-Intein Splicing Activity. [Related pubchem assays (depositor defined):AID2097, AID2223, AID489010, AID492950]; type: functional
T1 sequence (P9WHJ3 whole entry): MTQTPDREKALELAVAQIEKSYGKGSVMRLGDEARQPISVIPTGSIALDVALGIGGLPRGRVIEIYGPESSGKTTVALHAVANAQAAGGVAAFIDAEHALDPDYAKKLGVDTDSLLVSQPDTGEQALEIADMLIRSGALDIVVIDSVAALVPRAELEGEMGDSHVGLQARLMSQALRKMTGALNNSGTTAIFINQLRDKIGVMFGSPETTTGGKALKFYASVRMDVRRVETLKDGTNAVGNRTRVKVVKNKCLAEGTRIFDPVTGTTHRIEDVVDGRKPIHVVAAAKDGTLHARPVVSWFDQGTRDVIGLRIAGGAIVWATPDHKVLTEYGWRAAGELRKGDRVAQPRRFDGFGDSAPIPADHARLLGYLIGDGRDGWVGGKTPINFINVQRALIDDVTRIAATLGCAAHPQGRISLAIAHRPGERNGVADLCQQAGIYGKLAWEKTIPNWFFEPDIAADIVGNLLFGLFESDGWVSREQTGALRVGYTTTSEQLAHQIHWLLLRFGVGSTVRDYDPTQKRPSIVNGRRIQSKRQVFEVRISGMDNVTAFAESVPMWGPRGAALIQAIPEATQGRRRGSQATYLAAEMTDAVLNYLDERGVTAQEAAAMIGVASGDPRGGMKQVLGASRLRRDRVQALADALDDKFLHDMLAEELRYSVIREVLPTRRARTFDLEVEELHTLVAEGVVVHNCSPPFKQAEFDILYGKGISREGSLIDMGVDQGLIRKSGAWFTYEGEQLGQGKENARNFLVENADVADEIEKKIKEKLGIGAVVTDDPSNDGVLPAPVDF

[7] = NIH3T3 cell viability loss – ATP luminescence, mouse fibroblasts, counter-screen, dose response (AID 2010); type: functional, cell-based;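 note: cells exposed to compound for about 90 hours before reading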
[8] = biological target: T2, Melanocortin receptor 4 (Homo sapiens, UniProt P32245); experiment: inhibitors of MC4R cAMP signaling – cell-based, TR-FRET, biased antagonists, dose response (AID 602298); type: functional;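 note: antagonist potency against agonist-stimulated cAMP production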
[9] = biological target: T3, Replicative DNA helicase DnaB (Mycobacterium tuberculosis, UniProt P9WMR3); experiment: DnaB intein splicing inhibitors, dose response, biochemical, cell-free fluorescence (AID 449749); type: functional
T3 sequence (P9WMR3 whole entry): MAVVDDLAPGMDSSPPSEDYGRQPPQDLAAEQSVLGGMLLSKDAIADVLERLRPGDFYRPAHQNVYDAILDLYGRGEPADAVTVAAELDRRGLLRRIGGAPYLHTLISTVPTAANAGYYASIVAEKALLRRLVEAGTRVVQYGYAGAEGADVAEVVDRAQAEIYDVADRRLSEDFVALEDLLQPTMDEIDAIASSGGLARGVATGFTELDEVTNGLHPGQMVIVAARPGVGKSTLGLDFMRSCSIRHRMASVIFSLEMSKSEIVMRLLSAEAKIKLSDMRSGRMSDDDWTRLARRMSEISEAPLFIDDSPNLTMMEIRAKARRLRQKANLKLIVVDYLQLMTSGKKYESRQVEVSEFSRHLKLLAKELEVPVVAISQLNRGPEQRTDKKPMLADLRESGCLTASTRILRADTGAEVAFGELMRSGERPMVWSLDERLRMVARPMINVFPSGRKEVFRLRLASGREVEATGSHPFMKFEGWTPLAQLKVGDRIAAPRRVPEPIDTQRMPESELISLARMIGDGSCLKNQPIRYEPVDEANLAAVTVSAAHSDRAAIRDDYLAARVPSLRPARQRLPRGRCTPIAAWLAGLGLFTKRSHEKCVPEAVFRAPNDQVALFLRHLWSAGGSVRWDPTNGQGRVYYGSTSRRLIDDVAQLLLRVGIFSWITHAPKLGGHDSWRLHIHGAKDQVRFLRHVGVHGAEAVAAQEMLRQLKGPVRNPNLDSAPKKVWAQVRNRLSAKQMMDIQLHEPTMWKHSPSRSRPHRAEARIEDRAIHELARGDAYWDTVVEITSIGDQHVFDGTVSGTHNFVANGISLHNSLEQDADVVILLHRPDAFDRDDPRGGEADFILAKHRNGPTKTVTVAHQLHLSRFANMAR

[10] = biological target: T4, Heat shock factor protein 1 (Mus musculus, UniProt P38532); experiment: enhancement of HSF1-driven luciferase signal – cell-based, NIH3T3, luminescence, dose retest, confirmation (AID 435004); type: functional;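 note: stress induced by proteasome inhibitor MG132 added 30 min after compound; luciferase reporter driven by HSF1 response element in NIH3T3 cells; actives raise luminescence as potentiators of the MG132 stress response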
T4 sequence (P38532 whole entry): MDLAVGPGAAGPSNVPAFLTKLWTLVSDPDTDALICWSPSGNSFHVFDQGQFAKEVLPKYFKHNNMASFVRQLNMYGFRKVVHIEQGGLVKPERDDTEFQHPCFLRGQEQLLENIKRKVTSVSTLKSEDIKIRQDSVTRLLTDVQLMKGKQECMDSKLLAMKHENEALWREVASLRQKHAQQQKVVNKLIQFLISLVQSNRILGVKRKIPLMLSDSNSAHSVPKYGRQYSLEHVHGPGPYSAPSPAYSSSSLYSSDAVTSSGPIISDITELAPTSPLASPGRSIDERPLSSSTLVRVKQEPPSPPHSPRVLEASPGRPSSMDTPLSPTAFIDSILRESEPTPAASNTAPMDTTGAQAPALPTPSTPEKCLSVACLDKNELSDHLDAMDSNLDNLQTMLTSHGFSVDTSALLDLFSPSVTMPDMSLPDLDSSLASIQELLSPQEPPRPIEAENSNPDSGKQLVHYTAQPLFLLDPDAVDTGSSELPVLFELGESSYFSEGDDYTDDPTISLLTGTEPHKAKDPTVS

[11] = biological target: T2, Melanocortin receptor 4; type: functional, cell-based
[12] = biological target: T5, Polyadenylate-binding protein 1 (Homo sapiens, UniProt P11940); experiment: MLLE binding blockers, Cy5 peptide tracer – biochemical, fluorescence polarization, Cy5-PAM2 peptide, secondary, miRNA deadenylation inhibitor project, dose response (AID 602260); type: functional; settings: read-out: IC50_Mean
[13] = biological target: T5, Polyadenylate-binding protein 1; experiment: MLLE domain peptide-binding blockers, IC50 – biochemical, fluorescence polarization, FITC-PAM2 peptide, dose response (AID 602259); type: functional; settings: read-out: IC50_Mean
[14] = biological target: T6, Apoptotic protease-activating factor 1 (Homo sapiens, UniProt O14727); experiment: SAR analysis of small molecule Activators of Apaf-1 in a Fluorescent assay.; type: functional; settings: read-out: EC50_Mean;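 note: caspase-3 cleavage of fluorogenic Rh110 DEVD substrate downstream of apoptosome activation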
T6 sequence (O14727 whole entry): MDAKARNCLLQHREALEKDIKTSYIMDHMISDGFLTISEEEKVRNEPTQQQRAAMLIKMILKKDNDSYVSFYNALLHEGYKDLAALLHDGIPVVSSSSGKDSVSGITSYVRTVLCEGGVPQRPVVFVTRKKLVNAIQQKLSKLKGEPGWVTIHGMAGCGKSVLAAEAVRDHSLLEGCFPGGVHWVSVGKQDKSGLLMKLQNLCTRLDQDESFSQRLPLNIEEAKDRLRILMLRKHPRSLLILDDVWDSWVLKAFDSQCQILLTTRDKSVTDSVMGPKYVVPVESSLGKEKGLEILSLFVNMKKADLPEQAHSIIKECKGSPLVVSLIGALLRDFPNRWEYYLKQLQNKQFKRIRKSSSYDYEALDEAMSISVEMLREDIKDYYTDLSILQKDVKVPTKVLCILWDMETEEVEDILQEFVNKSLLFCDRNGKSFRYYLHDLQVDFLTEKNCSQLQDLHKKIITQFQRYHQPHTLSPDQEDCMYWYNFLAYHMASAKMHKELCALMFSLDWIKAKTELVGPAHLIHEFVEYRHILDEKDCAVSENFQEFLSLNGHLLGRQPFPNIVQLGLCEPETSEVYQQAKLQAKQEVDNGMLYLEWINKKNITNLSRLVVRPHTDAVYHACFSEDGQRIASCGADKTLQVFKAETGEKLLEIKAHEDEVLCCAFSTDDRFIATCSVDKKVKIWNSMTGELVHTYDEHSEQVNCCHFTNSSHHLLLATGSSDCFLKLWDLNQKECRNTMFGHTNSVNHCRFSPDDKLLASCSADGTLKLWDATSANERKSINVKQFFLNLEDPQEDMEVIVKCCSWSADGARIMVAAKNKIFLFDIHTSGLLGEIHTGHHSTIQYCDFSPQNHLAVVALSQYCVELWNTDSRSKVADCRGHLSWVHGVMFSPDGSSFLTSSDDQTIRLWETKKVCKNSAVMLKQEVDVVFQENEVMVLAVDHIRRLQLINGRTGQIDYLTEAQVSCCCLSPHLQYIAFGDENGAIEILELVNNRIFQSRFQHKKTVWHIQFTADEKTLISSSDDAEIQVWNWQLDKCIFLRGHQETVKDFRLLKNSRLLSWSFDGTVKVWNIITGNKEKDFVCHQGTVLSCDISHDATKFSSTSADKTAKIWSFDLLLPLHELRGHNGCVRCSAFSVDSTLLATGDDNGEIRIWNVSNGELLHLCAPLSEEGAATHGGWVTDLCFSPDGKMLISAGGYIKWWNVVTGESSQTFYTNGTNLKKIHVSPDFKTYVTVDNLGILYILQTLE

[15] = cells; type: functional, cell-based
[16] = test system: INS1; experiment: INS-1E survival protection against cytokine death – cell-based, luminescence, retest, dose response (AID 449756); type: functional; settings: Rattus norvegicus;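 note: cell death triggered by IL-1 beta plus TNF-alpha plus IFN-gamma mixture; protective hits raise ATP signal compared with cytokine alone wells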
[17] = bead-based luminescence quenchers, dual-tagged ARNT – biochemical, AlphaScreen, cherry-pick, artefact control for ARNT-TACC3 interaction inhibitor project, dose response (AID 651705); type: functional;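 note: AlphaScreen bead proximity signal that flags compounds interfering with the detection technology; potency reflects signal decrease which marks the compound as an assay artifact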
[18] = biological target: Nonstructural protein 1 (Influenza A virus, UniProt Q194T2); type: functional, Influenza A virus (A/California/07/2009(H1N1))
[19] = cells; type: functional, cell-based; remark: listed apart in the source
[20] = biological target: T7, Methionyl-tRNA synthetase, putative (Trypanosoma brucei brucei, UniProt Q38C91); type: functional, Trypanosoma brucei brucei strain 927/4 GUTat10.1
T7 sequence (Q38C91 whole entry): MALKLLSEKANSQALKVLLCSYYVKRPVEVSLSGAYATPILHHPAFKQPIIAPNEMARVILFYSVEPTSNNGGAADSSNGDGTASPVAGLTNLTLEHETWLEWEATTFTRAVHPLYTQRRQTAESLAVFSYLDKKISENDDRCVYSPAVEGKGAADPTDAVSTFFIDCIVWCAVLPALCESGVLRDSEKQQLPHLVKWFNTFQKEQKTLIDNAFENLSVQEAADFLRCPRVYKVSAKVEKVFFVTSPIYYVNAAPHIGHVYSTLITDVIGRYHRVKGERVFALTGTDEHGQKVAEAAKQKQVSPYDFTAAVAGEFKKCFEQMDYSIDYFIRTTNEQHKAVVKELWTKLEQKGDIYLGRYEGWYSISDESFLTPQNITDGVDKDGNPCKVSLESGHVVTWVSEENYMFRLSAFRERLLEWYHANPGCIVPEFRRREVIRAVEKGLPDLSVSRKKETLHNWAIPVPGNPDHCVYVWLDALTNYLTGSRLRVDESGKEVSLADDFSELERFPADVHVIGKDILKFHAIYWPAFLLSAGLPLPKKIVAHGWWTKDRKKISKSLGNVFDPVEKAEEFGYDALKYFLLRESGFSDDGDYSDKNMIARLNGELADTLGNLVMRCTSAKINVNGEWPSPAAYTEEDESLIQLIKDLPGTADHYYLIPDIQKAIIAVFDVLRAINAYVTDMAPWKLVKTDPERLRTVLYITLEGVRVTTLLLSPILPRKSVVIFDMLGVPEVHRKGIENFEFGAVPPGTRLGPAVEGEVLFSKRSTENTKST

[21] = test system: HEK293; experiment: cells; settings: Homo sapiens
[22] = test system: HEK293; experiment: cells; settings: Homo sapiens; remark: listed apart in the source
[23] = biological target: T7, Methionyl-tRNA synthetase, putative; type: functional, Trypanosoma brucei brucei strain 927/4 GUTat10.1; remark: listed apart in the source
[24] = Counterscreen for inhibitors of Trypanosoma brucei methionyl tRNA synthetase (MetRS): Luminescence-based cell-based high throughput dose response assay to identify compounds that are cytotoxic to Jurkat human T lymphocyte cells.; type: functional

T2 sequence (P32245 whole entry): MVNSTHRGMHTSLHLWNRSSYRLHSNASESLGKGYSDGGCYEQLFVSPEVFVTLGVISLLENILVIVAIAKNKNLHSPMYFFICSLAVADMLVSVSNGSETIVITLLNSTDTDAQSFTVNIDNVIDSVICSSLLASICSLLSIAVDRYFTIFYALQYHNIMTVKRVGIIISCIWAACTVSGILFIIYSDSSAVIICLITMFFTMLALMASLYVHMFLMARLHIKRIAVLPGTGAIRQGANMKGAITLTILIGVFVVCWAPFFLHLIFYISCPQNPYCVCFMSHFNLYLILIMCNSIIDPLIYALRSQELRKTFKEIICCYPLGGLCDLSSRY
Protein Wnt-3a, sequence (P27467 whole entry): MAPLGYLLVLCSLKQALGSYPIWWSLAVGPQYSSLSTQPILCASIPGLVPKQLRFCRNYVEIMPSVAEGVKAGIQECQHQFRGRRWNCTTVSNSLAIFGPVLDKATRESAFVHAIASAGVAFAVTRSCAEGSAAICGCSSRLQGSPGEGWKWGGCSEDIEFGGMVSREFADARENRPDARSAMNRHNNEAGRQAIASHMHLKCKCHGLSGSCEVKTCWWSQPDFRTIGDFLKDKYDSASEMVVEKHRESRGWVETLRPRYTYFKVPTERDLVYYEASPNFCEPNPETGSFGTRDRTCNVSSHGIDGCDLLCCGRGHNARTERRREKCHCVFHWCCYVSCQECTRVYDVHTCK
T5 sequence (P11940 whole entry, the tested form may be a part): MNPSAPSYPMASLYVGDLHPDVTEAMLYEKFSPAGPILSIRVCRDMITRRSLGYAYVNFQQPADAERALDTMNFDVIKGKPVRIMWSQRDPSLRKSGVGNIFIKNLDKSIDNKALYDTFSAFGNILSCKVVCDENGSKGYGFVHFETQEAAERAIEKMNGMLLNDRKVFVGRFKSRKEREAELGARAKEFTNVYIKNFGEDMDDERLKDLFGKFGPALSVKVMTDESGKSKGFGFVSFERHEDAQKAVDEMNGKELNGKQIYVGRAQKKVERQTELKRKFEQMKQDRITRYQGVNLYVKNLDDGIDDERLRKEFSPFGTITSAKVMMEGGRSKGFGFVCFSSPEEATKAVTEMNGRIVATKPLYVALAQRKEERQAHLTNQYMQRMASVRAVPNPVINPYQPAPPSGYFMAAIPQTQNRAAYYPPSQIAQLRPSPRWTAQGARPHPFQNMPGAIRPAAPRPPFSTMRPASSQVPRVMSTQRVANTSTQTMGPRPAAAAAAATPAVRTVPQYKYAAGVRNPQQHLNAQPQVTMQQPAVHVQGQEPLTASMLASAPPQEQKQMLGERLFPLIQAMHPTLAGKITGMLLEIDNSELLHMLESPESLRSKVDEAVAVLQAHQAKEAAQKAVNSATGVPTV
Nonstructural protein 1, sequence (Q194T2 whole entry): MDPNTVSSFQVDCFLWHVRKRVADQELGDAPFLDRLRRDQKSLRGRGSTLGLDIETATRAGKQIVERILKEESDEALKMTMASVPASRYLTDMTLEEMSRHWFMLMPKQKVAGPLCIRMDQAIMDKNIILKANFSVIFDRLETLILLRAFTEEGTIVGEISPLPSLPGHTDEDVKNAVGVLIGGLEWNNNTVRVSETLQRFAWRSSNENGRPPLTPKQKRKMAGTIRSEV

## C=CCNc1nc2c(c(=O)n(C)c(=O)n2C)n1Cc1ccc(F)cc1
[1]
  IC50: 0.892 µM (active)
[2]
  IC50: 5.06 µM (active)
[3]
  IC50: 1.13 µM (active)

## CC[N+](CC)(CC#Cc1ccccc1)CC#Cc1ccccc1
[2]
  IC50: 35.2 µM (inactive)

## O=C(CCl)c1ccc2c(c1)CCN2C(=O)C1CCCCC1
[4]
  EC50: 1.92 µM (active)
[5]
  IC50: > 64.6 µM (inactive)
[6]
  EC50: 4.08 µM (active)
[7]
  EC50: 6.6 µM (active)
[8]
  IC50: > 64.6 µM (inactive)
[9]
  AC50: 42.4 µM (active)
[10]
  EC50: 4.1 µM (inconclusive)

## Cc1ccc(OCC(=O)NC(=S)Nc2cccc(NC(=O)c3ccccc3)c2)cc1
[11]
  EC50: > 89.2 µM (inactive)
[12]
  IC50: > 66 µM (inactive)
[13]
  IC50: > 66 µM (inactive)

## COc1ccc(C)cc1NC(=O)CCS(=O)(=O)c1ccc2c(c1)NC(=O)CS2
[14]
  EC50: > 100 µM (inactive)

## Cc1ncc(CO)c(/C=N/NC(=O)c2cc3c(s2)CCCC3)c1O
[15]
  EC50: > 350 µM (not active)
[16]
  AC50: 1.89 µM (active)
[17]
  AC50: 119 µM (active)
[18]
  IC50: 11.9 µM (active)
[19]
  EC50: 11.4 µM (active)

## CC1CC1C(=O)Nc1nc(-c2ccccn2)cs1 (configuration not stated)
[17]
  AC50: 82.6 µM (active)

## NC(Cc1ccc(Cl)cc1)c1csc(NC(=O)Nc2ccccc2)n1 (configuration not stated)
[20]
  IC50: 4.07 µM (active)
[21]
  EC50: > 59.6 µM (inactive)
[11]
  EC50: > 89.2 µM (inactive)
[22]
  EC50: > 59.6 µM (inactive)
[23]
  IC50: 2.09 µM (active)
[24]
  IC50: 13.7 µM (inactive)
